Patent publication US4288595A, “7-(Substituted)-7H-pyrrolo[3,2-f]quinazoline-1,3-diamines” (priority 1980, dated 1981)
≈ marks a conversion by molar mass, not a printed value. Like-named read-outs stand apart in the source and are kept apart here.

Tests used:
P. vulgaris 6896 = assay: In vitro antibacterial activity, MIC by agar dilution; assay type: cell-based; details: Proteus vulgaris, Wellcotest Sensitivity Test Agar, 5% hemolyzed horse blood, 18 hours at 35° C.
Experimental: (§1) A stock solution or suspension of the test compound at a concentration of 2500 μg/ml. is prepared utilizing a suitable solvent or medium such as aqueous sodium hydroxide, aqueous lactic acid, methyl cellosolve, dimethylsulfoxide, dimethylacetamide, ethylene glycol, dimethylformamide, formamide, propylene glycol, acetone or methanol. Two-fold dilutions are made by adding appropriate amounts of sterile water to the solution or suspension of the test substance. One ml. quantities of each dilution are incorporated into Wellcotest Sensitivity Test Agar fortified with 5% hemolyzed horse blood (9 ml. vol.) in sterile Petri dishes to give plates containing varying concentrations of the test compound. The hardened surfaces of each plate are incubated with the test organism, and the plates are incubated for 18 hours at 35° C.

S. paratyphi 11737 = assay: as above; assay type: cell-based; details: Salmonella enterica, read-out: MIC, S. paratyphi 11737
Experimental: as §1

K. pneumoniae 10031 = assay: as above; assay type: cell-based; details: read-out: MIC, K. pneumoniae 10031
Experimental: as §1

S. aureus Smith = assay: as above; assay type: cell-based; details: Staphylococcus aureus; Wellcotest Sensitivity Test Agar, 5% hemolyzed horse blood, 18 hours at 35° C.
Experimental: as §1

E. coli 9637 = assay: as above; assay type: cell-based; details: read-out: MIC, E. coli 9637
Experimental: as §1

S. aureus 53-180 = assay: as above; assay type: cell-based; details: Staphylococcus aureus, 53180; Wellcotest Sensitivity Test Agar, 5% hemolyzed horse blood, 18 hours at 35° C.
Experimental: as §1

[1] = Blood schizonticidal antimalarial test in mice infected with Plasmodium berghei; details: mouse, in vivo, sc
Experimental: (§2) Test animals weigh from 18 to 22 grams but weight variations in any given experimental or control group are confined to 2-3 grams. All animals in any given test are approximately of the same age. Animals on test are housed in metal-topped plastic cages, given a standard laboratory diet and water ad libitum.
(§3) Test animals receive an intraperitoneal injection of 0.5 ml. of 1:100 dilution of heparinized heart's blood with a minimum of 90% parasitized cells (4×10^7 cells), drawn from donor mice infected one week earlier with Plasmodium berghei. The donor strain is maintained by weekly passages in separate groups of mice inoculated with a 0.5 ml. of 1:500 dilution of heparinized heart's blood.
(§4) Test compounds are administered after dissolution or suspension in peanut oil. A single dose is given subcutaneously 72 hours after the mice are infected with Plasmodium berghei. […] Since treatment is withheld for three days to permit the infection to become well established and death occurs in untreated controls within 6-8 days, it is felt that this system presents a candidate compound with the maximum challenge. In order to check factors such as changes in the infectivity of Plasmodium berghei or in the susceptibility of the host or to detect technical errors, a group of infected animals treated with pyrimethamine at dose levels producing definite increases in survival time is included in a positive control in every experiment.
(§5) In each experiment test compounds are administered in graded dosages. […] Deaths prior to the sixth day, when untreated controls begin to die, are regarded as nonparasitic and become the basis for toxicity evaluations. Treated animals are kept under observation for 60 days. Survivors at the end of this period of time are considered as cured. In calculating mean survival time, toxic deaths and 60-day survivors are not included.

[2] = system: Plasmodium berghei KBG 173; assay: as above; details: for ED100 / minimal effective dose: Plasmodium berghei, in Mus musculus, sc; for ED100: read-out: Lowest Dose Curing All Mice; for minimal effective dose: read-out: Min. Curing Dose; for ΔMST (increase in mean survival time of treated animals to untreated controls): s.c.
Experimental: as §2, §3, §4, §5

N. catarrhalis 8193 = assay: In vitro antibacterial activity, MIC by agar dilution; assay type: cell-based; details: Wellcotest Sensitivity Test Agar, 5% hemolyzed horse blood, 18 hours at 35° C.
Experimental: as §1

[3] = Wellcotest Sensitivity Test Agar, 5% hemolyzed horse blood, 18 hours at 35° C.
[4] = Klebsiella pneumoniae, 10031, Wellcotest Sensitivity Test Agar, 5% hemolyzed horse blood, 18 hours at 35° C.
[5] = Escherichia coli, 9637, Wellcotest Sensitivity Test Agar, 5% hemolyzed horse blood, 18 hours at 35° C.

## Cc1ccc(C)c(S(=O)(=O)n2ccc3c4c(N)nc(N)nc4ccc32)c1 [Example 2, 7-[(2,5-Dimethylphenyl)Sulfonyl]-7H-Pyrrolo-[3,2-f]Quinazoline-1,3-Diamine]
P. vulgaris 6896
  MIC: 62.5 µg/mL (≈ 170 µM)
S. paratyphi 11737; [3]
  MIC: 31.3 µg/mL (≈ 85.2 µM)
K. pneumoniae 10031; Klebsiella pneumoniae, 10031, 18 h
  MIC: 31.3 µg/mL (≈ 85.2 µM)
S. aureus Smith
  MIC: 7.81 µg/mL (≈ 21.3 µM)
E. coli 9637; Escherichia coli, 9637, 18 h
  MIC: 31.3 µg/mL (≈ 85.2 µM)
S. aureus 53-180
  MIC: 0.976 µg/mL (≈ 2.66 µM)
[1]
  MTD at 1440 h: 160 mg/kg
[2]; 1440 h
  ED100: 40 mg/kg
  minimal effective dose: 20 mg/kg
[2]; dose 5 mg. per kg.
  ΔMST (increase in mean survival time of treated animals to untreated controls): 6.6

## Nc1nc(N)c2c(ccc3c2ccn3S(=O)(=O)c2ccc([N+](=O)[O-])cc2)n1 [Example 3]
N. catarrhalis 8193
  MIC: 0.12 µg/mL (≈ 0.312 µM)
P. vulgaris 6896
  MIC: > 250 µg/mL
S. paratyphi 11737; [3]
  MIC: > 250 µg/mL
K. pneumoniae 10031; [4]
  MIC: 3.9 µg/mL (≈ 10.1 µM)
S. aureus Smith
  MIC: 7.81 µg/mL (≈ 20.3 µM)
E. coli 9637; [5]
  MIC: 7.81 µg/mL (≈ 20.3 µM)
S. aureus 53-180
  MIC: 3.9 µg/mL (≈ 10.1 µM)
[2]; 1440 h
  minimal effective dose: 640 mg/kg
[2]; dose 160 mg. per kg.
  ΔMST (increase in mean survival time of treated animals to untreated controls): 8.4

## Nc1nc(N)c2c(ccc3c2ccn3S(=O)(=O)c2ccc3ccccc3c2)n1 [Example 4]
N. catarrhalis 8193
  MIC: 15.6 µg/mL (≈ 40.1 µM)
P. vulgaris 6896
  MIC: > 250 µg/mL
S. paratyphi 11737; [3]
  MIC: > 250 µg/mL
K. pneumoniae 10031; [4]
  MIC: > 250 µg/mL
S. aureus Smith
  MIC: 250 µg/mL (≈ 642 µM)
E. coli 9637; [5]
  MIC: > 250 µg/mL
S. aureus 53-180
  MIC: 250 µg/mL (≈ 642 µM)
[2]; 1440 h
  minimal effective dose: 20 mg/kg
[2]; dose 10 mg. per kg.
  ΔMST (increase in mean survival time of treated animals to untreated controls): 11.4

## Cc1ccc(S(=O)(=O)n2ccc3c4c(N)nc(N)nc4ccc32)cc1 [Example 5]
N. catarrhalis 8193
  MIC: 1.95 µg/mL (≈ 5.52 µM)
P. vulgaris 6896
  MIC: > 250 µg/mL
S. paratyphi 11737; [3]
  MIC: > 250 µg/mL
K. pneumoniae 10031; [4]
  MIC: 15.6 µg/mL (≈ 44.1 µM)
S. aureus Smith
  MIC: 125 µg/mL (≈ 354 µM)
E. coli 9637; [5]
  MIC: > 250 µg/mL
S. aureus 53-180
  MIC: 62.5 µg/mL (≈ 177 µM)
[1]
  MTD at 1440 h: 640 mg/kg
[2]; 1440 h
  ED100: 80 mg/kg
  minimal effective dose: 20 mg/kg
[2]; dose 10 mg. per kg.
  ΔMST (increase in mean survival time of treated animals to untreated controls): 5.8

## COc1ccc(S(=O)(=O)n2ccc3c4c(N)nc(N)nc4ccc32)cc1 [Example 6]
N. catarrhalis 8193
  MIC: 0.122 µg/mL (≈ 0.33 µM)
P. vulgaris 6896
  MIC: > 250 µg/mL
S. paratyphi 11737; [3]
  MIC: > 250 µg/mL
K. pneumoniae 10031; [4]
  MIC: 3.9 µg/mL (≈ 10.6 µM)
S. aureus Smith
  MIC: 15.6 µg/mL (≈ 42.2 µM)
E. coli 9637; [5]
  MIC: > 250 µg/mL
S. aureus 53-180
  MIC: 7.81 µg/mL (≈ 21.1 µM)
[1]
  MTD at 1440 h: 640 mg/kg
[2]; 1440 h
  ED100: 160 mg/kg
  minimal effective dose: 40 mg/kg

## Nc1nc(N)c2c(ccc3c2ccn3S(=O)(=O)c2ccc(Cl)c(Cl)c2)n1 [Example 7]
N. catarrhalis 8193
  MIC: 0.122 µg/mL (≈ 0.299 µM)
P. vulgaris 6896
  MIC: > 250 µg/mL
S. paratyphi 11737; 18 h
  MIC: > 250 µg/mL
K. pneumoniae 10031; [4]
  MIC: 3.13 µg/mL (≈ 7.67 µM)
S. aureus Smith
  MIC: 31.3 µg/mL (≈ 76.7 µM)
E. coli 9637; [5]
  MIC: > 250 µg/mL
S. aureus 53-180
  MIC: 3.9 µg/mL (≈ 9.55 µM)
[1]
  MTD at 1440 h: 640 mg/kg
[2]; 336 h
  ED100: 10 mg/kg
  minimal effective dose: 1.25 mg/kg

## Nc1nc(N)c2c(ccc3c2ccn3S(=O)(=O)c2ccc(Cl)cc2)n1 [Example 8]
N. catarrhalis 8193
  MIC: 0.244 µg/mL (≈ 0.653 µM)
P. vulgaris 6896
  MIC: > 250 µg/mL
S. paratyphi 11737; [3]
  MIC: > 250 µg/mL
K. pneumoniae 10031; [4]
  MIC: 7.81 µg/mL (≈ 20.9 µM)
S. aureus Smith
  MIC: 62.5 µg/mL (≈ 167 µM)
E. coli 9637; [5]
  MIC: > 250 µg/mL
S. aureus 53-180
  MIC: 15.6 µg/mL (≈ 41.7 µM)
[1]
  MTD at 1440 h: 160 mg/kg
[2]; 336 h
  ED100: 40 mg/kg
  minimal effective dose: 40 mg/kg

## Nc1nc(N)c2c(ccc3c2ccn3S(=O)(=O)c2cccc(C(F)(F)F)c2)n1 [Example 9]
P. vulgaris 6896
  MIC: > 250 µg/mL
S. paratyphi 11737; [3]
  MIC: > 250 µg/mL
K. pneumoniae 10031; [4]
  MIC: 3.9 µg/mL (≈ 9.57 µM)
S. aureus Smith
  MIC: 3.9 µg/mL (≈ 9.57 µM)
E. coli 9637; [5]
  MIC: > 250 µg/mL
S. aureus 53-180
  MIC: 0.976 µg/mL (≈ 2.4 µM)
[1]
  MTD at 1440 h: 160 mg/kg
[2]; 1440 h
  ED100: 40 mg/kg
  minimal effective dose: 10 mg/kg
[2]; dose 5 mg. per kg.
  ΔMST (increase in mean survival time of treated animals to untreated controls): 6.6

## Nc1nc(N)c2c(ccc3c2ccn3S(=O)(=O)c2ccccc2)n1 [Example 10]
P. vulgaris 6896
  MIC: 125 µg/mL (≈ 368 µM)
S. paratyphi 11737; [3]
  MIC: 15.6 µg/mL (≈ 46 µM)
K. pneumoniae 10031; [4]
  MIC: 0.488 µg/mL (≈ 1.44 µM)
S. aureus Smith
  MIC: 1.95 µg/mL (≈ 5.75 µM)
E. coli 9637; [5]
  MIC: 3.9 µg/mL (≈ 11.5 µM)
S. aureus 53-180
  MIC: 0.976 µg/mL (≈ 2.88 µM)
[2]; 1440 h
  minimal effective dose: 40 mg/kg
[2]; dose 20 mg. per kg.
  ΔMST (increase in mean survival time of treated animals to untreated controls): 7.2

## CC(=O)Nc1ccc(S(=O)(=O)n2ccc3c4c(N)nc(N)nc4ccc32)cc1 [Example 11]
P. vulgaris 6896
  MIC: > 250 µg/mL
S. paratyphi 11737; [3]
  MIC: > 250 µg/mL
K. pneumoniae 10031; [4]
  MIC: 7.81 µg/mL (≈ 19.7 µM)
S. aureus Smith
  MIC: 31.3 µg/mL (≈ 79 µM)
E. coli 9637; [5]
  MIC: > 250 µg/mL
S. aureus 53-180
  MIC: 31.3 µg/mL (≈ 79 µM)
[1]
  MTD at 1440 h: 320 mg/kg
[2]; 1440 h
  ED100: 20 mg/kg
  minimal effective dose: 10 mg/kg
[2]; dose 5 mg. per kg.
  ΔMST (increase in mean survival time of treated animals to untreated controls): 9.3

## CC(C)(C)c1ccc(S(=O)(=O)n2ccc3c4c(N)nc(N)nc4ccc32)cc1 [Example 12]
P. vulgaris 6896
  MIC: > 250 µg/mL
S. paratyphi 11737; [3]
  MIC: > 250 µg/mL
K. pneumoniae 10031; [4]
  MIC: 1.95 µg/mL (≈ 4.93 µM)
S. aureus Smith
  MIC: 7.81 µg/mL (≈ 19.7 µM)
E. coli 9637; [5]
  MIC: 250 µg/mL (≈ 632 µM)
S. aureus 53-180
  MIC: 3.9 µg/mL (≈ 9.86 µM)
[1]
  MTD at 1440 h: 640 mg/kg
[2]; 1440 h
  ED100: 40 mg/kg
  minimal effective dose: 20 mg/kg
[2]; dose 10 mg. per kg.
  ΔMST (increase in mean survival time of treated animals to untreated controls): 6.5
